The values that follow are results of earlier work, collected in patent publication US6783752B2, “Contrast agents” (Amersham Health AS, priority 1996, dated 2004).

Structures are written as SMILES.

The conditions of series [1]: in vivo.
A further series has as its system coronary blood flow. Particulars: in vivo.

In the case of `Nc1ncnc2c1ncn2[C@@H]1O[C@H](CO)[C@@H](O)[C@H]1O` [adenosine], the blood pool half-life in series [1] is 2 s. The “increase in coronary blood flow in healthy myocardial tissue” value in the series on coronary blood flow is reported as “in excess of fourfold increases in coronary blood flow”.
